{
  "source": "patent US9284543B2",
  "about": "“Neutral active soluble truncated PH20 polypeptides and uses thereof” (Halozyme, Inc., priority 2008, dated 2016)",
  "molecules": {"B1": {"name": "VASL + PLC: full length human PH20 (SEQ ID NO: 108) with PLC treatment (protein, listed as Homo sapiens)", "chain": "LNFRAPPVIPNVPFLWAWNAPSEFCLGKFDEPLDMSLFSFIGSPRINATGQGVTIFYVDRLGYYPYIDSITGVTVNGGIPQKISLQDHLDKAKKDITFYMPVDNLGMAVIDWEEWRPTWARNWKPKDVYKNRSIELVQQQNVQLSLTEATEKAKQEFEKAGKDFLVETIKLGKLLRPNHLWGYYLFPDCYNHHYKKPGYNGSCFNVEIKRNDDLSWLWNESTALYPSIYLNTQQSPVAATLYVRNRVREAIRVSKIPDAKSPLPVFAYTRIVFTDQVLKFLSQDELVYTFGETVALGASGIVIWGTLSIMRSMKSCLLLDNYMETILNPYIINVTLAAKMCSQVLCQEQGVCIRKNWNSSDYLHLNPDNFAIQLEKGGKFTVRGKPTLEDLEQFSEKFYCSCYSTLSCKEKADVKDTDAVDVCIADGVCIDAFLKPPMETEEPQIFYNASPSTLSATMFIVSILFLIISSVASL", "modifications": "PLC treatment; Mature Human PH20 36-509"}},
  "key": {"[1]": {"test_system": "HZ24-2B2 cells expressing rHuPH20", "experiment": "Treatment of rHuPH20-expressing cells with glycosylation inhibitors", "format": "cell-based, Chinese Hamster", "conditions": "for Effect on PH20 activity (in words): tissue culture media and inside the cell", "method": "Briefly, 1×10^6 HZ24-2B2 cells expressing rHuPH20 (see Example 14 below) were seeded in 24 mL complete CD-CHO medium in two 125 mL flasks. Tunicamycin (dissolved in DMSO) or Kifunensine (freshly dissolved in water) was added to a final concentration of 5 μg/mL (containing 12 μL DMSO). As a control, one flask was seeded with 1×10^6 HZ24-2B2 cells expressing rHuPH20 and 12 μL DMSO was added as a vehicle control. Following addition of either tunicamycin or kifunensine, the cells were incubated for 4-6 hours at 37° C. with 5% CO2. Following expression, a 2 mL culture was removed and centrifuged for 5 minutes at 500 g. The supernatant was stored at 4° C. and the cell pellets were stored at −20° C. The remaining 22 mL cultures were centrifuged for 5 minutes at 500 g. The supernatant was stored at 4° C. The cells were resuspended in 22 mL complete CD-CHO medium in the original two 125 mL flasks. Tunicamycin or Kifunensine was added to the culture at a final concentration of 5 μg/mL and the cells were incubated at 37° C. with 5% CO2. Two mL (2 mL) cultures were removed from each flask at approximately every 24 hours post changing medium. For each time point, the supernatant was stored at 4° C. and the cell pellets were stored at −20° C. The expression of rHuPH20 was analyzed by Western blot analysis and the hyaluronidase activity was measured using the biotinylated HA enzymatic assay (as described in Examples 3 and 5 above)."}, "[2]": {"experiment": "Microtiter hyaluronidase activity assay with biotinylated-hyaluronic acid", "format": "biochemical", "conditions": "Table 6, 72 hour post transfection supernatant", "method": "In Example 4, the hyaluronidase activity of truncated human PH20 hyaluronidase is determined using biotinylated hyaluronic acid. The free carboxyl groups on the glucuronic acid residues of hyaluronic acid are biotinylated, and the biotinylated hyaluronic acid substrate is covalently coupled to a microtiter plate. Following incubation with hyaluronidase, the residual biotinylated hyaluronic acid substrate is detected using an avidin-peroxidase reaction, and compared to that obtained following reaction with hyaluronidase standards of known activity. […] The sensitivity permits rapid measurement of hyaluronidase activity from cultured cells and biological samples with an inter-assay variation of less than 10%.\nIn this example, the human PH20 hyaluronidase carboxy-terminus deletion mutants were tested for their PH20 hyaluronidase activity using a microtiter assay with biotinylated-hyaluronic acid (biotinylated-HA or bHA). The human PH20 hyaluronidase carboxy-terminus deletion mutants were tested for hyaluronidase activity at both pH 7.4 and pH 5.5.\nIn short, a 4×BH 96-well plate was coated with biotinylated-HA (1.1 MDa). The 72 hour post transfection supernatant from cells transfected with human PH20 hyaluronidase carboxy-terminus deletion mutants was diluted in buffer at either pH 7.4 or pH 5.5 and added to individual wells of the plate and allowed to incubate at 37° C. for 90 minutes. The reaction was terminated by addition of 4M guanidine HCl. The wells were washed 4× with Phosphate Buffered Saline with Tween20 (PBST) to remove any digested biotinylated-HA followed by addition of streptavidin-HRP for 1 hour at room temperature. The wells were washed 4× with PBST and the plate was developed with TMB. The plate was read at 450 nm using an ELISA plate reader. Hyaluronidase activity (in Units/mL) was determined by interpolating the measured absorbance at 450 nm with a hyaluronidase reference standard curve. Full length mature human PH20 hyaluronidase and untransfected CHO cells were used as positive and negative controls."}},
  "data": [
    {"molecule": "Tunicamycin", "values": [
      {"measurement": "Effect on cell viability (in words)", "setting": "[1]; 5 μg/mL", "result": "complete loss of cell viability"},
      {"measurement": "PH20 activity", "setting": "[1]; Cell Pellets, With Tunicamycin, 0 hours", "result": 34.50, "unit": "U/mL"},
      {"measurement": "PH20 activity", "setting": "[1]; Cell Pellets, With Tunicamycin, 1 hours", "result": 38.00, "unit": "U/mL"},
      {"measurement": "PH20 activity", "setting": "[1]; Cell Pellets, With Tunicamycin, 2 hours", "result": 34.00, "unit": "U/mL"},
      {"measurement": "PH20 activity", "setting": "[1]; Cell Pellets, With Tunicamycin, 4 hours", "result": 18.00, "unit": "U/mL"},
      {"measurement": "PH20 activity", "setting": "[1]; Cell Pellets, With Tunicamycin, 25 hours", "result": 1.00, "unit": "U/mL"},
      {"measurement": "PH20 activity", "setting": "[1]; Cell Pellets, With Tunicamycin, 49 hours", "result": 0.80, "unit": "U/mL"},
      {"measurement": "PH20 activity", "setting": "[1]; Cell Pellets, With Tunicamycin, 73 hours", "result": 0.30, "unit": "U/mL"},
      {"measurement": "PH20 activity", "setting": "[1]; Cell Pellets, With Tunicamycin, 91 hours", "result": 0.30, "unit": "U/mL"},
      {"measurement": "PH20 activity", "setting": "[1]; Tissue Culture Media, With Tunicamycin, 0 hours", "result": 0.50, "unit": "U/mL"},
      {"measurement": "PH20 activity", "setting": "[1]; Tissue Culture Media, With Tunicamycin, 1 hours", "result": 2.80, "unit": "U/mL"},
      {"measurement": "PH20 activity", "setting": "[1]; Tissue Culture Media, With Tunicamycin, 2 hours", "result": 5.00, "unit": "U/mL"},
      {"measurement": "PH20 activity", "setting": "[1]; Tissue Culture Media, With Tunicamycin, 4 hours", "result": 8.80, "unit": "U/mL"},
      {"measurement": "PH20 activity", "setting": "[1]; Tissue Culture Media, With Tunicamycin, 25 hours", "result": 5.80, "unit": "U/mL"},
      {"measurement": "PH20 activity", "setting": "[1]; Tissue Culture Media, With Tunicamycin, 49 hours", "result": 6.80, "unit": "U/mL"},
      {"measurement": "PH20 activity", "setting": "[1]; Tissue Culture Media, With Tunicamycin, 73 hours", "result": 7.80, "unit": "U/mL"},
      {"measurement": "PH20 activity", "setting": "[1]; Tissue Culture Media, With Tunicamycin, 91 hours", "result": 7.50, "unit": "U/mL"},
      {"measurement": "Viable Cells", "setting": "[1]; With Tunicamycin 5 μg/mL, 0 hours", "result": "1.04 ×10^6"},
      {"measurement": "Viable Cells", "setting": "[1]; With Tunicamycin 5 μg/mL, 1 hours", "result": "1.04 ×10^6"},
      {"measurement": "Viable Cells", "setting": "[1]; With Tunicamycin 5 μg/mL, 2 hours", "result": "1.04 ×10^6"},
      {"measurement": "Viable Cells", "setting": "[1]; With Tunicamycin 5 μg/mL, 4 hours", "result": "0.910 ×10^6"},
      {"measurement": "Viable Cells", "setting": "[1]; With Tunicamycin 5 μg/mL, 25 hours", "result": "1.08 ×10^6"},
      {"measurement": "Viable Cells", "setting": "[1]; With Tunicamycin 5 μg/mL, 49 hours", "result": "0.200 ×10^6"},
      {"measurement": "Viable Cells", "setting": "[1]; With Tunicamycin 5 μg/mL, 73 hours", "result": "0.080 ×10^6"},
      {"measurement": "Viable Cells", "setting": "[1]; With Tunicamycin 5 μg/mL, 91 hours", "result": "0 ×10^6"},
      {"measurement": "Accumulation of deglycosylated human PH20 inside the cell", "setting": "[1]; one hour of treatment, SDS-PAGE mobility shift to approximately 56 kDa in cell pellet fractions", "result": "accumulation of deglycosylated human PH20 hyaluronidase inside the cell"},
      {"measurement": "Effect on PH20 activity (in words)", "setting": "[1]; 5 μg/mL", "result": "inhibits PH20 activity"}
    ]},
    {"molecule": "O=C1N[C@@H]2[C@@H](O)[C@@H](O)[C@H](O)[C@@H](CO)N2C1=O", "note": "[Kifunensine]", "values": [
      {"measurement": "PH20 activity", "setting": "[1]; Cell Pellets, With Kifunensine, 0 hours", "result": 22.25, "unit": "U/mL"},
      {"measurement": "PH20 activity", "setting": "[1]; Cell Pellets, With Kifunensine, 6 hours", "result": 21.25, "unit": "U/mL"},
      {"measurement": "PH20 activity", "setting": "[1]; Cell Pellets, With Kifunensine, 24 hours", "result": 27.75, "unit": "U/mL"},
      {"measurement": "PH20 activity", "setting": "[1]; Cell Pellets, With Kifunensine, 50 hours", "result": 43, "unit": "U/mL"},
      {"measurement": "PH20 activity", "setting": "[1]; Cell Pellets, With Kifunensine, 72 hours", "result": 98.75, "unit": "U/mL"},
      {"measurement": "PH20 activity", "setting": "[1]; Cell Pellets, With Kifunensine, 96 hours", "result": 208.75, "unit": "U/mL"},
      {"measurement": "PH20 activity", "setting": "[1]; Cell Pellets, With Kifunensine, […]", "result": 497.25, "unit": "U/mL"},
      {"measurement": "PH20 activity", "setting": "[1]; Tissue Culture Media, With Kifunensine, 0 hours", "result": 0.4, "unit": "U/mL"},
      {"measurement": "PH20 activity", "setting": "[1]; Tissue Culture Media, With Kifunensine, 6 hours", "result": 23.85, "unit": "U/mL"},
      {"measurement": "PH20 activity", "setting": "[1]; Tissue Culture Media, With Kifunensine, 24 hours", "result": 129.6, "unit": "U/mL"},
      {"measurement": "PH20 activity", "setting": "[1]; Tissue Culture Media, With Kifunensine, 50 hours", "result": 299.7, "unit": "U/mL"},
      {"measurement": "PH20 activity", "setting": "[1]; Tissue Culture Media, With Kifunensine, 72 hours", "result": 535.95, "unit": "U/mL"},
      {"measurement": "PH20 activity", "setting": "[1]; Tissue Culture Media, With Kifunensine, 96 hours", "result": 945, "unit": "U/mL"},
      {"measurement": "PH20 activity", "setting": "[1]; Tissue Culture Media, With Kifunensine, […]", "result": 2968.65, "unit": "U/mL"},
      {"measurement": "Viable Cells", "setting": "[1]; With Kifunensine 5 μg/mL, 0 hours", "result": "1 ×10^6"},
      {"measurement": "Viable Cells", "setting": "[1]; With Kifunensine 5 μg/mL, 6 hours", "result": "1 ×10^6"},
      {"measurement": "Viable Cells", "setting": "[1]; With Kifunensine 5 μg/mL, 24 hours", "result": "1.2 ×10^6"},
      {"measurement": "Viable Cells", "setting": "[1]; With Kifunensine 5 μg/mL, 50 hours", "result": "2.1 ×10^6"},
      {"measurement": "Viable Cells", "setting": "[1]; With Kifunensine 5 μg/mL, 72 hours", "result": "3 ×10^6"},
      {"measurement": "Viable Cells", "setting": "[1]; With Kifunensine 5 μg/mL, 96 hours", "result": "3.7 ×10^6"},
      {"measurement": "Viable Cells", "setting": "[1]; With Kifunensine 5 μg/mL, […]", "result": "5.8 ×10^6"},
      {"measurement": "Effect on PH20 activity (in words)", "setting": "[1]; 5 μg/mL", "result": "did not affect the activity of PH20"},
      {"measurement": "Effect on expression and secretion of rHuPH20", "setting": "[1]; western blot analysis, 5 μg/mL", "result": "inhibited the expression and secretion of rHuPH20"}
    ]},
    {"molecule": "B1", "values": [
      {"measurement": "pH 5.5 Activity", "setting": "[2]; pH 5.5", "result": 2.313, "unit": "Units/ml"},
      {"measurement": "pH 7.4 Activity", "setting": "[2]; pH 7.4", "result": 3.96, "unit": "Units/ml"}
    ]}
  ]
}
